Among the data in PubChem BioAssay AID504760 (National Center for Advancing Translational Sciences (NCATS), 2011) are percent remaining values, retold here.

For this data set, the system named is mouse plasma stability, LC-MS/MS, 48 h. Nature of the data set: Inhibitors of Cruzain: Mouse Plasma Stability Profiling. The following applies: at 2 µM; stronger effect = higher value. An excerpt: Chagas Disease is a neglected tropical disease that affects over 16 million people in Latin America. The cysteine protease cruzain is essential for the survival Trypanosoma cruzi, the parasitic agent responsible for Chagas disease. Potential intervention for T. cruzi includes the inhibition of cruzain. This bioassay will summarize the ongoing development of small molecule cruzain inhbitiors. Currently, a screen of ~200k compounds and through extensive follow-up work a probe was identified. To further characterize the probe, it was tested in in vitro ADME assays. The stability of the lead compound in mouse plasma is tested because this parameter has a significant impact on many ADME-concerned properties of drugs, such as uptake, distribution, transport, and bioavailability. NIH Chemical Genomics Center [NCGC] NIH Molecular Libraries Probe Production Centers Network [MLPCN] MLSCN Grant: DA024891-01 PI Name: Dr. Brian Shoichet; University of California, San Francisco
2uM of compound is incubated in mouse plasma; the reference compound is procaine. Compounds are incubated at 37 deg C for the pre-determined time periods and the when aliquots are removed. Samples are analyzed with LC-MS/MS.

Each structure is given as a SMILES string.

Regarding `Cc1ccc(OCCn2c(CCNC(=O)C3CCCCC3)nc3ccccc32)cc1`, the percent remaining was 95%.
